The record followed here is patent US11707557B2, “Compositions and devices incorporating water-insoluble therapeutic agents and methods of the use thereof” (COOK MEDICAL TECHNOLOGIES LLC, priority 2014, dated 2023).

Data set [1] in a line: Drug concentrations obtained using EGCG at 50 mg per ml (microscopic check for particulates). It is filed as physicochemical. The following applies: for Drug Concentration: 1 ml of water; for Particulates present: under a microscope. How it is done: EGCG at 50 mg/ml and drug at approximately 250 micrograms per ml were dissolved in the listed solvent and dried down in a test tube under nitrogen. 1 ml of water was added, followed by vortexing. The solutions were examined for particulate matter under a microscope. If no particulates were present, the process was repeated with a higher drug amount. All the tested drugs remained in solution at the listed concentrations except for nystatin and hesperidin.

Data set [2] is described as follows: Release from PLGA microspheres +/- EGCG or tannic acid. The following applies: over a 10 days period. It is filed as physicochemical. Here is the method:
Method: The method involved pipetting a solution of the polymer PLGA (usually 20% w/v) and drug (usually 5% w/w to polymer) and EGCG (e.g. 20% w/w/ to polymer) in dichlomethane (DCM) (5 ml) into 100 ml of 2.5% PVA solution in water stirring at 450 rpm. The suspension was left stirring for 2 hours and the microspheres washed 4 times in distilled water. The microspheres were then dried under vacuum for 2 days. Drug encapsulation was measured by dissolving a known weight of microspheres in 1 ml of dichloromethane followed by immediate dilution to 10 ml in 60:40 acetonitrile/water. The amount of drug or EGCG in the top and bottom phase of this solution was measured using HPLC methods (mobile phase 58:37:5 Acetonitrile:water:methanol. 1 ml per min flow on a c18 column with detection at 232 nm)
Tannic acid: An alternative method was used, termed a water-in oil-in water emulsion. […] This forms a primary emulsion of water droplets in the PLGA solution stabilized by Span. When this emulsion was pipetted into the PVA solution the microspheres formed well. […] The microspheres were a light brown in color indicative of tannic acid encapsulation.
Methods: In these studies, 10 mg of microspheres were suspended in 2 ml of phosphate buffered saline (pH 7.4 10 mM phosphate) in microcentrifuge tubes and tumbled at 8 rpm at 37° C. The tubes were then centrifuged at 12000×g and the supernatants collected for drug analysis by HPLC. 2 ml of fresh PBS was then placed on top of the microspheres which were returned to the 37° C. oven for continued incubation with tumbling.
At the end of the study the residual mass of polymer and drug was dissolved in DCM and drug extracted into 60:40 acetonitrile:water to measure residual drug. The amounts of residual drug were 89% for plga alone (at 31 days), 16% for EGCG and 8% for tannic acid (both at 51 days) as expressed as a % of the original loading.

The nature of data set [3]: Solubility of EGCG and tannic acid in propylene glycol and PEG 300.
Description: EGCG and tannic acid are fairly soluble in alcohol and acetonitrile. […] These solutions become more viscous and paste-like as the percentage of gallate in solution is increased. When non-drug containing pastes were placed in water, the contents of the paste (gallate, PG or PEG), which are all water soluble, dissolved away.
The nature of data set [4]: Lidocaine release from propylene glycol:gallate pastes into PBS. It is filed as physicochemical. How it is done:
For each formulation, 100 mg of paste was placed in the base of a round bottomed 15 mL glass test tube. […] At the start of the release experiment, 10 ml of PBS was added and the tubes left for various time periods, after which all 10 mL of the release media was removed for drug analysis. The residual mass was observed from the top, and the drop in diameter from 8 mm noted as a semi-quantitative assessed of paste pellet degradation. It was not possible to measure the degradation fully quantitatively at that time, as the pellets were fragile and water-swollen. After a few days the pellets became less fragile, and were removed from the tubes and dried on tissue paper before weighing. The drop in weight from 100 mg was then noted as the % degradation and compared with the visual observations.

Data set [5] is described as follows: Solubility of drug in EGCG or tannic acid solutions (dried down, PBS or water added, 0.22 micron filtered, HPLC or absorbance).
The next data set deals with pig skin. How it is done:
Various gallate-containing drug formulations were prepared and applied to ex vivo pig skin samples. Fresh pig skin was obtained from a local butcher, processed within three hours and then frozen. For experiments, the skin was slowly thawed, excess fat removed from the base, and cut into 1×2 cm squares. These squares were mounted and clamped on Franz diffusion cells, which kept the tissue moist and isolated and exposed a 6 mm diameter of the upper skin surface for the application of a drug loaded formulation. Skin samples were then frozen and later cryosectioned in 50 μm slices. The drug in the slices was extracted and measured by HPLC or radioactive doping methods. A drug depth profile was then established for each drug.
1. Formulations containing a drug and a gallate. The drugs were dissolved in ethanol at various concentrations along with either EGCG or TA (500 mg/mL). Each solution was pipetted into 6×5 mm diameter aluminum cups (approximately 3 mm in height) by filling and allowing the ethanol to evaporate at 50° C. until all the solution was used up (80 mg per cup).
2. Formulations containing a drug, propylene glycol (“PG”) and a gallate. 300 mg of propylene glycol was mixed with 200 mg of EGCG or TA until dissolved. Various amounts of drug were added to this mixture and dissolved. 80 mg of the resulting viscous solution was weighed into 6×5 mm aluminum cups.
3. Control Formulations. Control formulations were prepared using Glaxal base and Plogel. Glaxal base is a cream used by compounding pharmacists to manufacture topical formulations of drugs. Plogel is an alternative used for dermal formulations. […] Drug was added to a known weight of Glaxal or Plogel and levigated to produce a standard drug dispersion. These formulations were prepared the evening before the experiment. For some drugs, radioactive drug (where available) was also added as a doping additive to facilitate quantitation in tissues.
Eutectics: In some cases, gallate containing compounds and drugs were formulated in eutectic mixtures. These included a 60:40 (% w/w) mixture of menthol with ibuprofen. These agents acted as a carrier for retinoic acid, which was then dissolved in this liquid. The 3-drug eutectic/solution was then blended into the CMC/poloxamer emulsion containing EGCG (2.5%). […] The emulsion was stabilized with poloxamer.
Example 29. Pig skin studies. Aluminum cups containing drug formulations were inverted on top of the pig skin in the Franz diffusion cell so that the formulation contents were in contact with the skin. […]
Analysis. […] The amount of drug in each group of skin sections was then determined using HPLC methods, or by radioactivity counting on a liquid scintillation counter. The amount of drug in each group of skin sections was expressed as μg/g or mg/g of tissue.

Converted amounts (≈) assume the structure as drawn.

As for `COc1ccc([C@@H]2CC(=O)c3c(O)cc(O)cc3O2)cc1O` [hesperetin], in data set [1], the Visual appearance entry was “clear solution”, the “Drug Concentration” value is recorded as 250 microgram/ml and the Particulates present result was “no”.

With `O=c1c(O)c(-c2ccc(O)c(O)c2)oc2cc(O)cc(O)c12` [quercetin], in data set [1], the Visual appearance entry was “clear”, the “Drug Concentration” value was determined as 250 microgram/ml and the Particulates present result is reported as “no”.

Take `C[C@@H]1[C@H](O)[C@@H](C)/C=C/C=C/CC/C=C/C=C/C=C/C=C/C(O[C@H]2O[C@H](C)[C@@H](O)[C@H](N)[C@@H]2O)CC2O[C@](O)(CC(O)C(O)CCC(O)CC(O)CC(O)CC(=O)O[C@H]1C)CC(O)C2C(=O)O` (some centres unmarked) [nystatin]: in data set [1], the Visual appearance entry was “clear solution”, the “Drug Concentration” value turned out to be 125 microgram/ml and the Particulates present entry is reported as “very”.

For `O=C(OC[C@H]1O[C@@H](OC(=O)c2cc(O)c(O)c(OC(=O)c3cc(O)c(O)c(O)c3)c2)[C@H](OC(=O)c2cc(O)c(O)c(OC(=O)c3cc(O)c(O)c(O)c3)c2)[C@@H](OC(=O)c2cc(O)c(O)c(OC(=O)c3cc(O)c(O)c(O)c3)c2)[C@@H]1OC(=O)c1cc(O)c(O)c(OC(=O)c2cc(O)c(O)c(O)c2)c1)c1cc(O)c(O)c(OC(=O)c2cc(O)c(O)c(O)c2)c1` [tannic acid], in data set [2], the “release of EGCG or Tannic acid from PLGA microspheres” value is recorded as around 65%. Besides, in data set [3], the “solubility in PEG 300 liquid” value was found to be 25 % w/w.

Consider `CCN(CC)CC(=O)Nc1c(C)cccc1C` [lidocaine], for which the “period of drug release” value in data set [4] (EGCG:propylene glycol pastes, 20% drug loading) is on record as 2-4 weeks; in data set [4] (tannic acid:propylene glycol pastes, 5% drug loading) it was around 7 days; in data set [4] (tannic acid:propylene glycol pastes, 20% drug loading), 4-5 weeks. The drug release in data set [4] (all EGCG:propylene glycol pastes, 5% drug loading, in approximately 2 days) is listed as around 100%.

Turning to `CO[C@H]1C[C@@H]2CC[C@@H](C)[C@@](O)(O2)C(=O)C(=O)N2CCCC[C@H]2C(=O)O[C@H]([C@H](C)C[C@@H]2CC[C@@H](O)[C@H](OC)C2)CC(=O)[C@H](C)/C=C(\C)[C@@H](O)[C@@H](OC)C(=O)[C@H](C)C[C@H](C)/C=C/C=C/C=C/1C` [rapamycin], the solubility (commonly how much of the substance goes into solution per volume) in data set [5] (EGCG solution (200 mg/ml) in PBS, aqueous with cosolvent or surfactant or cyclodextrin, thermodynamic from solid, drug concentration solubilised at maximum EGCG concentration, EGCG 200 mg per ml, PBS) is around 300 µg/mL (≈ 328 µM); in data set [5] (tannic acid solution (500 mg/ml) in water, aqueous with cosolvent or surfactant or cyclodextrin, thermodynamic from solid, drug concentration solubilised at maximum tannic acid concentration, tannic acid 500 mg/ml, water), around 1500 µg/mL (≈ 1640 µM); in data set [5] (water, free solubility in water, no EGCG or tannic acid), 2 to 3 µg/mL (≈ 2.19 to 3.28 µM). Also, the “effect of temperature on solubility” value is recorded as “little effect of temperature” in data set [5] (EGCG solutions) and “no effect of temperature” in data set [5] (tannic acid solutions, 37° C. or 50° C. compared to 23° C.). Further, in data set [5] (EGCG solutions, 24 hours), the “stability of EGCG solutions of the drug” value is given as “stable for 24 hours”. Also, the “stability of tannic acid solutions of the drug” value in data set [5] (tannic acid solutions, 24 hours) is recorded as “stable for 24 hours”.

As to `CC(C)(C)[C@]1(O)CC2OC(=O)CC23C(=O)OC2OC(=O)[C@H](O)C231` (some centres unmarked) [bilobalide], in data set [1], the Visual appearance entry is “clear solution”, the “Drug Concentration” value was 250 microgram/ml and the Particulates present result is recorded as “no”.

Consider `CC1=CC(=O)c2c(O)cccc2C1=O` [plumbagin], for which, in data set [1], the Visual appearance result is given as “clear”, the “Drug Concentration” value is reported as 250 microgram/ml and the Particulates present entry was “no”.

As to `COc1ccc([C@@H]2CC(=O)c3c(O)cc(O[C@@H]4O[C@H](CO[C@@H]5O[C@@H](C)[C@H](O)[C@@H](O)[C@H]5O)[C@@H](O)[C@H](O)[C@H]4O)cc3O2)cc1O` [hesperedin], in data set [1], the Visual appearance entry is recorded as “almost clear”, the “Drug Concentration” value is on record as 125 microgram/ml and the Particulates present entry was “very”.

On to `CC1C(=O)OC2C(O)C34C5CC(C(C)(C)C)C36C(OC(=O)C6O)OC4(C(=O)O5)C12O` (centres unmarked) [ginkgolide B], for which, in data set [1], the Visual appearance entry was “clear solution”, the “Drug Concentration” value turned out to be 250 microgram/ml and the Particulates present result is recorded as “no”.

In the case of `CC1=C(/C=C/C(C)=C/C=C/C(C)=C/C(=O)O)C(C)(C)CCC1` [retinoic acid], the “drug uptake by pig skin relative to controls” value with pig skin was “higher levels of uptake as compared to the control formulations”.

As for `COc1ccc2c(c1)c(CC(=O)O)c(C)n2C(=O)c1ccc(Cl)cc1` [indomethacin], in data set [1], the Visual appearance result was “clear solution”, the “Drug Concentration” value was found to be 250 microgram/ml and the Particulates present result is “no”.

Consider `O=C(O[C@@H]1Cc2c(O)cc(O)cc2O[C@@H]1c1cc(O)c(O)c(O)c1)c1cc(O)c(O)c(O)c1` [EGCG, epi gallo catechin gallate], for which, in data set [2], the “release of EGCG or Tannic acid from PLGA microspheres” value was “approximately 45%”. In data set [3], the “solubility in PEG 300 liquid” value worked out at 25 % w/w and the “solubility in propylene glycol” value is on record as “higher than 50 % w/w”.

Turning to `CC[C@@]1(O)C(=O)OCc2c1cc1n(c2=O)Cc2cc3ccccc3nc2-1` [camptothecin], in data set [1], the Visual appearance entry was “clear”, the “Drug Concentration” value worked out at 50 microgram/ml and the Particulates present result is “no”.
